Data taken from PubChem BioAssay (NCI).
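Five concentrations, 48 hours, 96-well plates. At the TGI there is no net growth.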 Where a SMILES comes first, the peptide text is derived from it. The star is where a group is joined. Fmoc = O=C(OCC1c2ccccc2-c2ccccc21)*; Boc = CC(C)(C)OC(=O)*

Columns and labels:
Assay in all cases: DTP human tumour cell line panel, 48 h
[1] = system: 786-0 renal
[2] = system: A549 NSCLC
[3] = system: ACHN renal
[4] = system: CCRF-CEM leukemia
[5] = system: EKVX NSCLC
[6] = system: HCT-15 colon
[7] = system: MDA-MB-231 breast
[8] = system: MDA-N
[9] = system: OVCAR-4 ovarian
[10] = system: RPMI-8226 leukemia
[11] = system: RXF 393 renal
[12] = system: SF-295 CNS
[13] = system: SK-MEL-2 melanoma
[14] = system: SK-MEL-28 melanoma
[15] = system: SK-MEL-5 melanoma
[16] = system: SN12C renal
[17] = system: SR leukemia
[18] = system: UO-31 renal

Row | SMILES | TGI [1] [µM] | TGI [2] [µM] | TGI [3] [µM] | TGI [4] [µM] | TGI [5] [µM] | TGI [6] [µM] | TGI [7] [µM] | TGI [8] [µM] | TGI [9] [µM] | TGI [10] [µM] | TGI [11] [µM] | TGI [12] [µM] | TGI [13] [µM] | TGI [14] [µM] | TGI [15] [µM] | TGI [16] [µM] | TGI [17] [µM] | TGI [18] [µM]
1 | N#Cc1c(Nc2ccccc2)[n+]([O-])c2ccc(Cl)cc2[n+]1[O-] | 34 | > 60.8 | 68.5 | > 27.2 | > 32.9 | 6.53 | > 67 | > 100 | 4.17 | > 24.7 | > 100 | > 74.3 | > 72 | > 100 | 4.84 | > 100 | > 27.7 | > 29.4
2 | CC(=O)NC1=CC(=O)C=C(Cl)C1=O | > 100 | > 100 | > 100 | 57.8 | > 100 | > 100 | > 100 | 31 | 37.7 | 52.1 | > 100 | > 100 | > 100 | > 100 | > 100 | > 100 | 48.3 | > 100
3 | C/C(CC(O)(C(F)(F)F)C(F)(F)F)=N/Nc1ccc([N+](=O)[O-])cc1[N+](=O)[O-] | > 10 | > 10 | > 10 | > 10 | > 10 | > 10 | 6.58 | > 10 | > 10 | 5.91 | 7.53 | > 10 | 6.11 | > 10 | 4 | > 10 | > 10 | > 10
4 | COC(=O)c1c(OC(C)=O)ccc2c1c1cc3ccccc3c(OC(C)=O)c1n2C | 43.2 | > 100 | 89.4 | > 100 | > 100 | > 100 | > 100 | > 100 | > 100 | > 100 | > 100 | > 100 | > 100 | > 100 | 31.2 | > 100 | > 100 | > 100
5 | O=C(CC(C(=O)c1cccs1)c1ccccc1)c1ccccc1O (centres undefined) | > 38.4 | > 100 | > 44.8 | > 100 | > 100 | > 100 | > 30 | > 100 | > 64.2 | > 100 | 27.9 | > 27.9 | > 100 | > 100 | > 100 | > 100 | > 52.5 | > 100
6 | COc1cc(C2S/C(=C/c3ccccc3)C(=O)N2c2ccccn2)cc(OC)c1OC (centres undefined) | 31.4 | > 64 | 29.8 | > 100 | 76.1 | 36.4 | > 84.8 | 34.4 | 63.2 | 73.3 | 22.8 | > 83.3 | > 71.3 | > 74 | 56.6 | 33.6 | > 100 | 28.8
7 | CC1OC(n2cnc3c(N)nc(Cl)nc32)C(C)(O)C1O (centres undefined) | > 25 | > 25 | > 25 | > 25 | > 25 | > 25 | > 25 | > 25 | > 25 | > 25 | > 25 | > 25 | > 25 | – | > 25 | > 25 | > 25 | > 25
8 | Cc1cn(C2CC(O)C(Cn3nncc3Cn3ccc(=O)[nH]c3=O)O2)c(=O)[nH]c1=O (centres undefined) | > 100 | > 100 | > 100 | > 100 | > 100 | > 100 | > 100 | > 100 | > 100 | > 100 | > 100 | > 100 | > 100 | > 100 | > 100 | > 100 | > 100 | > 100
9 | O[C@H]1[C@@H]2OC[C@@H](O)[C@H](OCc3ccccc3)[C@@](COCc3ccccc3)(O2)[C@@H]1OCc1ccccc1 | 45.4 | 33.3 | 30.4 | 42.1 | 30.3 | 30.9 | 30.9 | 29.4 | 24.4 | 31.9 | 39.8 | 26.1 | 29.7 | 27.3 | – | 27.9 | > 100 | 30.6
10 | COc1ccccc1NC1=NCC(C)S1 (centres undefined) | > 100 | > 100 | > 100 | > 100 | > 100 | > 100 | > 100 | > 100 | – | > 100 | > 100 | > 100 | > 100 | > 100 | > 100 | > 100 | > 100 | > 100
11 | CC(C)(C)OC(=O)NCCCCC(NC(=O)C(Cc1c[nH]c2ccccc12)NC(=O)OCC1c2ccccc2-c2ccccc21)C(=O)O (centres undefined) (Fmoc-Trp-Lys(Boc)-OH; configuration not given here) | > 100 | > 100 | > 100 | 61 | > 100 | > 100 | 67.9 | > 100 | > 100 | 67 | > 100 | > 100 | 54.9 | > 100 | > 100 | > 100 | 59.3 | > 100
12 | S=c1sscc1N1CCSc2ssc(=S)c21 | > 100 | > 100 | > 100 | > 100 | 49.8 | > 100 | > 100 | > 100 | 29.8 | > 100 | > 100 | – | > 100 | > 100 | > 100 | > 100 | > 100 | > 100
13 | CC(C)C(=O)CP(=O)(O)O | > 100 | > 100 | > 100 | > 100 | 46.1 | > 100 | > 100 | > 100 | > 100 | > 100 | > 100 | > 100 | > 100 | > 100 | > 100 | > 100 | > 100 | –
